# Laboratory results published in patent US10913983B2, “Sensitivity markers and uses for CDK7 inhibitors in breast cancers” (UNIVERSITY OF SOUTH CAROLINA, priority 2017, dated 2021).
# Experiments:
# [1] = tested on: panel of breast cancer cell lines; assay: Cell proliferation MTT assay, cell line panel; type: cell-based
# Procedure: (§1) Cells were seeded in 12-well plates at densities ranging from 10000-30000 cells/well and after 24 hours cells were treated with 10, 40 and 100 nM THZ1 in triplicate. After 7 days the cells were imaged using Zeiss Axiovert 200 microscope using a 20× objective lens. Additionally, cells were plated in 96-well plates at a density of 2000 cells/well and after 24 hours treated with 0-10 μM THZ1. After 2 and 7 days the growth of the cells was measured by MTT assay.
# All results were presented as mean±standard deviation of 4-8 parallel assessments. Similar results were obtained from a minimum of two independent experiments. […] Densitometry was performed on duplicate immunoblots using ImageLab software (Biorad) and normalized to tubulin loading controls and then correlated with the THZ1 IC50 values of each cell line. Statistical analyses were performed using SPSS 18.0 (SPSS Inc). Bi-variant scatter graphs and Spearman rank analyses were performed to evaluate associations between protein levels, mRNA and response to inhibition. IC50 values were calculated for MTT assays using CompuSyn software.
# To investigate the effect of CDK7 inhibition in a time and dose dependent manner, an extended panel of 11 breast cancer cell lines were screened for response to THZ1 after 2 and 7 days of treatment.
# [2] = tested on: breast cancer cell lines (TNBC, ER+HER2−, ER+HER2+ and ER−/HER2+); assay: Cell proliferation, 12-well plates, bright-field imaging; type: cell-based; settings: 100 nM, seven days of treatment
# Procedure: as §1
# The effects of different concentrations of THZ1 on breast cancer cell lines was examined. Cell lines included TNBC, ER+HER2−, ER+HER2+ and ER−/HER2+ and effects were studied over seven days of treatment.
# 549 = settings: fold change in gene expression, THZ1; cited from earlier work
# [3] = tested on: phosphorylation of RNA Pol II at S2, S5 and S7; assay: Immunoblotting of RNA Pol II phosphorylation; type: cell-based; settings: increasing concentrations (10-6250 nM), 4 hours, multiple breast cancer cell lines
# Procedure: Cells were plated in 100 mm^2 petri dishes at a density of 1×10^6 cells/plate and allowed to grow for 3-4 days until the cells reached 80% confluency. Cells were treated with THZ1 or with vehicle control (DMSO) prior to lysing cells in RIPA buffer containing protease inhibitor cocktail and PMSF. Protein concentration was determined using BCA assay (Pierce). All lysates were prepared in biological duplicates. Protein (50 μg) was resolved on 4-20% Express-Plus PAGE gels in Tris-MOPS (SDS) running buffer (GenScript), transferred to PVDF membranes and incubated at 4° C. overnight with primary antibodies: CDK7 (sc-529, SantaCruz), ER (sc-543, SantaCruz), HER2 (#4290, Cell Signaling Technology), RNA-Pol II-S2P (C152000005, Diagenode), RNA-Pol II-S5P C152000007, RNA-Pol II-S7P (04-1570, Millipore) and RNA-Pol II (sc-900X, SantaCruz), CITED2 (MAB5005, R+D Systems), Tubulin (T-9026, Sigma), followed by anti-rabbit (#31460, ThermoFisher Scientific), anti-mouse (31430, ThermoFisher Scientific) or anti-rat (AP136P, Millipore) secondary antibodies. Bands were visualized with Western Lighting Plus ECL detection reagent (Perkin Elmer) using ChemiDoc Touch™ (BioRad). Images were analyzed and densitometry performed using ImageLab software (Biorad).
# The effects of increasing concentrations of THZ1 on the phosphorylation of RNA Pol II at S2, S5 and S7 was tested across multiple breast cancer cell lines. […]
# MDA-MB-468 cells = settings: fold change in gene expression, 250 nM THZ1; cited from earlier work
# breast cancer cell lines = assay: qPCR gene expression after THZ1; type: cell-based; settings: 250 nM, 6 hours
# Procedure: Cells were plated in 100 mm^2 petri dishes at a density of 1×10^6 cells/plate and allowed to grow for 3-4 days until the cells reached 80% confluency. Cells were treated with THZ1 or with vehicle control (DMSO). Total RNA was extracted using RNAeasy Mini Kit (Qiagen) and 1 μg of total RNA was used to generate cDNA using iScript cDNA synthesis kit (BioRad). Gene expression was quantified using iTaq Universal SYBR green super mix on a CFX384 Real time system (BioRad).
# T47D = settings: fold change in gene expression, THZ1; cited from earlier work
compound,measurement,setting,value
CN(C)C/C=C/C(=O)Nc1ccc(C(=O)Nc2cccc(Nc3ncc(Cl)c(-c4c[nH]c5ccccc45)n3)c2)cc1 [THZ1],difference in sensitivity determined by IC50,[1]; most sensitive cell line SKBR3 vs least sensitive cell line JIMT-1,25 fold
same,IC50,"[1]; two-day treatment, read-out: IC50 values of most cell lines",100 to 300 nM
same,growth inhibition,[2],inhibited the growth of all tested cell lines regardless of subtype
same,BAMBI 549 FC,549,−2.97
same,CDKN1B 549 FC,549,−3.06
same,CITED2 549 FC,549,−4.12
same,CYR61 549 FC,549,−2.96
same,DKK1 549 FC,549,−5.01
same,E2F8 549 FC,549,−3.09
same,ELF3 549 FC,549,−1.11
same,FADD 549 FC,549,−3.1
same,FBXO5 549 FC,549,−4.09
same,MARS2 549 FC,549,−3.73
same,MOCS3 549 FC,549,−4.2
same,MYC 549 FC,549,−3.06
same,NEDD9 549 FC,549,−1.53
same,PHLDA1 549 FC,549,−2.72
same,PIM3 549 FC,549,−2.73
same,PLK2 549 FC,549,−3.7
same,TRIB1 549 FC,549,−4.07
same,WEE1 549 FC,549,−2.95
same,ZNF217 549 FC,549,−3.66
same,ZNF627 549 FC,549,−3.39
same,"phosphorylation of RNA Pol II at S2, S5 and S7",[3],inhibited the phosphorylation of all three sites in a dose dependent manner
same,BAMBI 468 FC,MDA-MB-468 cells,−3.8
same,CDKN1B 468 FC,MDA-MB-468 cells,−4.11
same,CITED2 468 FC,MDA-MB-468 cells,−4.53
same,CYR61 468 FC,MDA-MB-468 cells,−4.82
same,DKK1 468 FC,MDA-MB-468 cells,−4.7
same,E2F8 468 FC,MDA-MB-468 cells,−4.01
same,ELF3 468 FC,MDA-MB-468 cells,−3.88
same,FADD 468 FC,MDA-MB-468 cells,−3.93
same,FBXO5 468 FC,MDA-MB-468 cells,−4.19
same,MARS2 468 FC,MDA-MB-468 cells,−4.04
same,MOCS3 468 FC,MDA-MB-468 cells,−3.84
same,MYC 468 FC,MDA-MB-468 cells,−4.64
same,NEDD9 468 FC,MDA-MB-468 cells,−4.03
same,PHLDA1 468 FC,MDA-MB-468 cells,−3.71
same,PIM3 468 FC,MDA-MB-468 cells,−4.05
same,PLK2 468 FC,MDA-MB-468 cells,−3.99
same,TRIB1 468 FC,MDA-MB-468 cells,−3.69
same,WEE1 468 FC,MDA-MB-468 cells,−3.69
same,ZNF217 468 FC,MDA-MB-468 cells,−3.77
same,ZNF627 468 FC,MDA-MB-468 cells,−3.68
same,expression of SOX9 and STAT3,breast cancer cell lines; MDA-MB-231 and T47D,not inhibited
same,"expression of CITED2, CDKN1B and PLK2",breast cancer cell lines; majority of tested cell lines,significant decrease in expression
same,"expression of EGFR, MYC and FOXC1",breast cancer cell lines; majority of the cell lines tested,significantly inhibited
same,BAMBI T47D FC,T47D,−1.74
same,CDKN1B T47D FC,T47D,−2.3
same,CITED2 T47D FC,T47D,−2.71
same,CYR61 T47D FC,T47D,−1.96
same,DKK1 T47D FC,T47D,−1.09
same,E2F8 T47D FC,T47D,−4.01
same,ELF3 T47D FC,T47D,−1.22
same,FADD T47D FC,T47D,−3.29
same,FBXO5 T47D FC,T47D,−2.65
same,MARS2 T47D FC,T47D,−2.3
same,MOCS3 T47D FC,T47D,−3.86
same,MYC T47D FC,T47D,−2.68
same,NEDD9 T47D FC,T47D,−3.32
same,PHLDA1 T47D FC,T47D,−3.81
same,PIM3 T47D FC,T47D,−2.54
same,PLK2 T47D FC,T47D,−2.48
same,TRIB1 T47D FC,T47D,−2.31
same,WEE1 T47D FC,T47D,−1.96
same,ZNF217 T47D FC,T47D,−2.77
same,ZNF627 T47D FC,T47D,−2.75
